Experimental data taken from patent US20250332265A1, “PSMA TARGETED CONJUGATE COMPOUNDS AND USES THEREOF” (priority 2021, published 2025).

System: PC3pip tumors
Assay: In vivo antitumor efficacy studies with PDT
Set-up: species or system mice
Experimental: The effect of PSMA-1-MMAE-IR700 were tested in mice bearing PC3pip tumors. Animals with tumor size at about 100 mm3 were used for the study (tumor volume=Length×width2/2). Animals were divided into 7 groups: (1) mice receiving PBS; (2) mice receiving 100 nmol/kg PSMA-1-MMAE-IR700 with PDT; (3) mice receiving equal doses of PSMA-1-MMAE-IR700 to group 2, but not receiving PDT; (4) Mice receiving equal doses of PSMA-1-IR700 to group 2 with PDT treatment; (5) Mice receiving equal doses of PSMA-1-IR700 to group 2 without PDT; (6) mice receiving equal doses of PSMA-1-IR700 to group 2+free MMAE with PDT (MMAE normalized to that delivered by PSMA-1-MMAE-IR700); and (7) mice receiving equal doses of PSMA-1-IR700 to group 2+free MMAE without PDT. Each group had 5 mice. Animals received drugs through tail vein injection on day 0, 4, 8, 12 and 16 and treated with 50 J/cm2 of 690 nm light at 1 h post-injection on these injection days. The dose and schedule was based on previous PSMA-1-VcMMAE work and were not optimized. Animals were imaged before and after PDT. Mice were monitored every other day for 90 days. Animals were euthanized when tumors became too large (diameter >20 mm) or animals were moribund. Data were reported as body weight over time, tumor size over time and Kaplan-Meier survival plots.

## CC[C@H](C)[C@@H]([C@@H](CC(=O)N1CCC[C@H]1[C@H](OC)[C@@H](C)C(=O)N[C@H](C)[C@@H](O)c1ccccc1)OC)N(C)C(=O)[C@@H](NC(=O)[C@H](C(C)C)N(C)C(=O)OCc1ccc(NC(=O)[C@H](CCCNC(N)=O)NC(=O)[C@@H](NC(=O)CCCCCN2C(=O)CC(SC[C@H](NC(=O)[C@H](CCC(=O)O)NC(=O)[C@H](CCC(=O)O)NC(=O)[C@H](CCC(=O)O)NC(=O)CCCCCNC(=O)[C@H]3CC[C@H](CNC(=O)CC[C@H](NC(=O)N[C@@H](CCC(=O)O)C(=O)O)C(=O)O)CC3)C(=O)NCCCCCC(=O)N[C@@H](CCCCNC(=O)CCCCCNC(=O)OCCCOc3cccc4c5n6c(c34)=NC3=NC(=Nc4c7ccccc7c(n4[Si]6(O[Si](C)(C)CCC[N+](CCCS(=O)(=O)[O-])(CCCS(=O)(=O)O)CCCS(=O)(=O)O)O[Si](C)(C)CCC[N+](CCCS(=O)(=O)[O-])(CCCS(=O)(=O)O)CCCS(=O)(=O)O)N=C4N=C(N=5)c5ccccc54)c4ccccc43)C(N)=O)C2=O)C(C)C)cc1)C(C)C (some centres unmarked) [PSMA-1-MMAE-IR700]
100 nmol/kg every 4 days, 5 doses, 50 J/cm^2 of 690 nm light
  tumor growth, with light irradiation (PDT): greatest tumor growth inhibition
100 nmol/kg every 4 days, 5 doses, no light
  tumor growth, no light treatment: significantly inhibited tumor growth
100 nmol/kg with light irradiation, 90-day period
  cure rate for tumors: 60%
liver, lung, heart, spleen, kidney, salivary gland and prostate
  histological analysis of major organs on day 30: did not cause systemic toxicity
Treatment groups
  body weight loss: did not cause any body weight loss
